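GI50 marks 50% less growth. TGI: total growth inhibition.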
Columns and labels:
Assay in all cases: NCI anticancer screen, dose series, 384-well format
[1] = tested on: 786-0 renal
[2] = tested on: A498 renal
[3] = tested on: A549 NSCLC
[4] = tested on: ACHN renal
[5] = tested on: BT-549 breast
[6] = tested on: CAKI-1 renal
[7] = tested on: CCRF-CEM leukemia
[8] = tested on: COLO 205 colon
[9] = tested on: DU-145 prostate
[10] = tested on: EKVX NSCLC
[11] = tested on: HCC-2998 colon
[12] = tested on: HCT-116 colon
[13] = tested on: HCT-15 colon
[14] = tested on: HL-60(TB) leukemia
[15] = tested on: HOP-62 NSCLC
[16] = tested on: HOP-92 NSCLC
[17] = tested on: HS 578T breast
[18] = tested on: HT29 colon
[19] = tested on: IGROV1 ovarian
[20] = tested on: K-562 leukemia
[21] = tested on: KM12 colon
[22] = tested on: LOX IMVI melanoma
[23] = tested on: M14 melanoma
[24] = tested on: MALME-3M melanoma
[25] = tested on: MCF7 breast
[26] = tested on: MDA-MB-231 breast
[27] = tested on: MDA-MB-435 melanoma
[28] = tested on: MDA-MB-468 breast
[29] = tested on: MOLT-4 leukemia
[30] = tested on: NCI-H226 lung
[31] = tested on: NCI-H23 lung
[32] = tested on: NCI-H322M lung
[33] = tested on: NCI-H460 NSCLC
[34] = tested on: NCI-H522 lung
[35] = tested on: NCI/ADR-RES ovarian
[36] = tested on: OVCAR-3 ovarian
[37] = tested on: OVCAR-4 ovarian
[38] = tested on: OVCAR-5 ovarian
[39] = tested on: OVCAR-8 ovarian
[40] = tested on: PC-3 prostate
[41] = tested on: RPMI-8226 leukemia
[42] = tested on: RXF 393 renal
[43] = tested on: SF-268 CNS
[44] = tested on: SF-295 CNS
[45] = tested on: SF-539 CNS
[46] = tested on: SK-MEL-28 melanoma
[47] = tested on: SK-MEL-5 melanoma
[48] = tested on: SK-OV-3 ovarian
[49] = tested on: SN12C renal
[50] = tested on: SNB-19 CNS
[51] = tested on: SNB-75 CNS
[52] = tested on: SR leukemia
[53] = tested on: SW-620 colon
[54] = tested on: T-47D breast
[55] = tested on: TK-10 renal
[56] = tested on: U251 glioblastoma
[57] = tested on: UACC-257 melanoma
[58] = tested on: UO-31 renal

Question: Which results are given for `Cn1cc(-c2ccc3nnc(C(F)(F)c4ccc5ncccc5c4)n3n2)cn1`?
Answer: GI50 [1]: 43.9 µM; TGI [1]: > 100 µM; GI50 [2]: 63.2 µM; TGI [2]: > 100 µM; GI50 [3]: 85.5 µM; TGI [3]: > 100 µM; GI50 [4]: 46.1 µM; TGI [4]: > 100 µM; GI50 [5]: 38.1 µM; TGI [5]: > 100 µM; GI50 [6]: 46.4 µM; TGI [6]: > 100 µM; GI50 [7]: 48.5 µM; TGI [7]: > 100 µM; GI50 [8]: 99 µM; TGI [8]: > 100 µM; GI50 [9]: 59.1 µM; TGI [9]: > 100 µM; GI50 [10]: 52.6 µM; TGI [10]: > 100 µM; GI50 [11]: 49.9 µM; TGI [11]: > 100 µM; GI50 [12]: 49.2 µM; TGI [12]: > 100 µM; GI50 [13]: 60.5 µM; TGI [13]: > 100 µM; GI50 [14]: 36.3 µM; TGI [14]: > 100 µM; GI50 [15]: 41.2 µM; TGI [15]: > 100 µM; GI50 [16]: 39.7 µM; TGI [16]: > 100 µM; GI50 [17]: 35.3 µM; TGI [17]: > 100 µM; GI50 [18]: 95.3 µM; TGI [18]: > 100 µM; GI50 [19]: 58.2 µM; TGI [19]: > 100 µM; GI50 [20]: 53.6 µM; TGI [20]: > 100 µM; GI50 [21]: 47.8 µM; TGI [21]: > 100 µM; GI50 [22]: 68.5 µM; TGI [22]: > 100 µM; GI50 [23]: > 100 µM; TGI [23]: > 100 µM; GI50 [24]: 65 µM; TGI [24]: > 100 µM; GI50 [25]: 41.8 µM; TGI [25]: > 100 µM; GI50 [26]: 53.5 µM; TGI [26]: > 100 µM; GI50 [27]: > 100 µM; TGI [27]: > 100 µM; GI50 [28]: 10.2 µM; TGI [28]: 59.6 µM; GI50 [29]: 17.6 µM; TGI [29]: 36.4 µM; GI50 [30]: 56.3 µM; TGI [30]: > 100 µM; GI50 [31]: 25 µM; TGI [31]: > 100 µM; GI50 [32]: 62.9 µM; TGI [32]: > 100 µM; GI50 [33]: 45.8 µM; TGI [33]: > 100 µM; GI50 [34]: 41.6 µM; TGI [34]: > 100 µM; GI50 [35]: 41.4 µM; TGI [35]: > 100 µM; GI50 [36]: 61.8 µM; TGI [36]: > 100 µM; GI50 [37]: 59.9 µM; TGI [37]: > 100 µM; GI50 [38]: 59.8 µM; TGI [38]: > 100 µM; GI50 [39]: 61.4 µM; TGI [39]: > 100 µM; GI50 [40]: 52.9 µM; TGI [40]: > 100 µM; GI50 [41]: 23.7 µM; TGI [41]: 97.8 µM; GI50 [42]: 25.2 µM; TGI [42]: 72.7 µM; GI50 [43]: 98.1 µM; TGI [43]: > 100 µM; GI50 [44]: 2.06 µM; TGI [44]: > 100 µM; GI50 [45]: 56.3 µM; TGI [45]: > 100 µM; GI50 [46]: > 100 µM; TGI [46]: > 100 µM; GI50 [47]: 29.7 µM; TGI [47]: > 100 µM; GI50 [48]: 75.5 µM; TGI [48]: > 100 µM; GI50 [49]: 45.2 µM; TGI [49]: > 100 µM; GI50 [50]: 67.3 µM; TGI [50]: > 100 µM; GI50 [51]: 43.1 µM; TGI [51]: > 100 µM; GI50 [52]: 24.2 µM; TGI [52]: > 100 µM; GI50 [53]: > 100 µM; TGI [53]: > 100 µM; GI50 [54]: 41.1 µM; TGI [54]: > 100 µM; GI50 [55]: 47.6 µM; TGI [55]: > 100 µM; GI50 [56]: 66.3 µM; TGI [56]: > 100 µM; GI50 [57]: > 100 µM; TGI [57]: > 100 µM; GI50 [58]: 58.6 µM; TGI [58]: > 100 µM
